From ChEMBL document CHEMBL5512668, “Macrocyclic Azapeptide Nitriles: Structure-Based Discovery of Potent SARS-CoV-2 Main Protease Inhibitors as Antiviral Drugs” (J Med Chem, 2024)

Target: T1, Replicase polyprotein 1ab (Severe acute respiratory syndrome coronavirus 2, UniProt P0DTD1)
Settings: not given

Row | SMILES | IC50
1 | CN(C(=O)[C@H](Cc1ccccc1)NC(=O)OCc1ccccc1)N(C#N)Cc1ccccc1Cl | 149 nM
2 | CN(C(=O)[C@H](Cc1ccc(F)cc1)NC(=O)[C@@H](NC(=O)c1cccs1)C(C)(C)C)N(C#N)Cc1cccc(Cl)c1F | 25 nM
3 | CN(C(=O)[C@H](Cc1ccccc1)NC(=O)OCc1ccccc1)N(C#N)Cc1cccc(F)c1 | 142 nM
4 | CN1C(=O)[C@H](Cc2ccccc2)N(C(=O)COc2ccc(Cl)cc2Cl)CCCCOc2ccc(F)cc2CN1C#N | 42 nM
5 | CN(C(=O)[C@H](Cc1ccccc1)NC(=O)OCc1ccccc1)N(C#N)Cc1ccc(Br)c(F)c1 | 206 nM
6 | CN(C(=O)[C@H](Cc1ccccc1)NC(=O)OCc1ccccc1)N(C#N)Cc1cccc(Cl)c1 | 88 nM
7 | CN(C(=O)[C@H](Cc1ccccc1)NC(=O)OCc1ccccc1)N(C#N)Cc1ccc(F)cc1 | 294 nM
8 | COc1cccc(OCC(=O)N[C@@H](Cc2ccccc2)C(=O)N(C)N(C#N)Cc2ccc(Cl)cc2)c1 | 1230 nM
9 | CN(C(=O)[C@H](Cc1ccccc1F)NC(=O)[C@@H](NC(=O)c1cccs1)C(C)(C)C)N(C#N)Cc1cccc(Cl)c1F | 19 nM
10 | CN(C(=O)[C@H](Cc1ccccc1)NC(=O)CNc1c(F)cccc1F)N(C#N)Cc1ccc(Cl)cc1 | 987 nM
11 | CN(C(=O)[C@H](Cc1ccccc1)NC(=O)OCc1ccccc1)N(C#N)Cc1ccccc1F | 137 nM
12 | CN(C(=O)[C@H](Cc1ccccc1)NC(=O)OCc1ccccc1)N(C#N)Cc1ccco1 | 206 nM
13 | CN(C(=O)[C@H](Cc1ccccc1)NC(=O)c1cc2cc(Cl)ccc2[nH]1)N(C#N)Cc1ccc(Cl)cc1 | 77 nM
14 | CN(C(=O)[C@H](Cc1ccccc1)NC(=O)OCc1ccccc1)N(C#N)Cc1ccsc1 | 416 nM
15 | CN(C(=O)[C@H](Cc1cccs1)NC(=O)[C@@H](NC(=O)c1cccs1)C(C)(C)C)N(C#N)Cc1cccc(Cl)c1F | 9 nM
16 | CN(C(=O)[C@H](Cc1ccccc1)NC(=O)OCc1ccccc1)N(C#N)Cc1cccc(Cl)c1F | 35 nM
17 | CN(C(=O)[C@H](Cc1ccccc1)NC(=O)COc1ccc(Cl)cc1)N(C#N)Cc1ccc(Cl)cc1 | 1300 nM
18 | CN(C(=O)[C@H](Cc1ccccc1)NC(=O)OCc1ccccc1)N(C#N)Cc1ccc(Br)cc1Cl | 143 nM
19 | COc1ccc(OCC(=O)N[C@@H](Cc2ccccc2)C(=O)N(C)N(C#N)Cc2ccc(Cl)cc2)cc1 | 1230 nM
20 | CN1C(=O)[C@H](Cc2ccccc2)N(C(=O)COc2ccc(Cl)cc2Cl)CCCOc2ccc(F)cc2CN1C#N | 25 nM
21 | CN(C(=O)[C@H](Cc1ccccc1)NC(=O)[C@@H](NC(=O)c1cccs1)C1CCCCC1)N(C#N)Cc1ccc(Cl)cc1 | 18 nM

Row | SMILES | IC50
22 | CN(C(=O)[C@H](Cc1ccccc1)NC(=O)COc1ccc2c(c1)NC(=O)CC2)N(C#N)Cc1ccc(Cl)cc1 | 960 nM
23 | CN(C(=O)[C@H](Cc1ccccc1)NC(=O)OCc1ccccc1)N(C#N)Cc1ccc(Br)cc1 | 200 nM
24 | CN(C(=O)[C@H](Cc1ccccc1)NC(=O)OCc1ccccc1)N(C#N)Cc1cc(Cl)ccc1F | 119 nM
25 | CN(C(=O)[C@H](Cc1ccccc1)NC(=O)CNc1ccc(F)cc1F)N(C#N)Cc1ccc(Cl)cc1 | 952 nM
26 | CN(C(=O)[C@H](Cc1ccccc1Cl)NC(=O)[C@@H](NC(=O)c1cccs1)C(C)(C)C)N(C#N)Cc1cccc(Cl)c1F | 26 nM
27 | COc1cccc(CN(C#N)N(C)C(=O)[C@H](Cc2ccccc2)NC(=O)OCc2ccccc2)c1F | 118 nM
28 | CN(C(=O)[C@H](Cc1ccccc1)NC(=O)COc1ccc(F)c(F)c1)N(C#N)Cc1ccc(Cl)cc1 | 1150 nM
29 | CN(C(=O)[C@H](Cc1ccccc1)NC(=O)OCc1ccccc1)N(C#N)Cc1ccc(Cl)cc1 | 260 nM
30 | CN(C(=O)[C@H](Cc1ccccc1)NC(=O)[C@@H](Nc1ccc([N+](=O)[O-])cc1[N+](=O)[O-])C(C)(C)C)N(C#N)Cc1ccc(Cl)cc1 | 2250 nM
31 | CN1C(=O)[C@H](Cc2ccccc2)NC(=O)COCCOc2ccc(F)cc2CN1C#N | 226 nM
32 | CN(C(=O)[C@H](Cc1ccccc1)NC(=O)[C@@H](NC(=O)C(F)(F)F)C(C)(C)C)N(C#N)Cc1ccc(Cl)cc1 | 33 nM
33 | CN(C(=O)[C@H](Cc1ccccc1)NC(=O)COc1ccc(F)cc1)N(C#N)Cc1ccc(Cl)cc1 | 1220 nM
34 | CCCS(=O)(=O)N[C@H](C(=O)N[C@@H](Cc1ccccc1)C(=O)N(C)N(C#N)Cc1ccc(Cl)cc1)C(C)(C)C | 156 nM
35 | CN(C(=O)[C@H](Cc1ccccc1)NC(=O)CNc1ccc(F)c(F)c1)N(C#N)Cc1ccc(Cl)cc1 | 343 nM
36 | Cc1csc(C(=O)N[C@H](C(=O)N[C@@H](Cc2ccccc2)C(=O)N(C)N(C#N)Cc2ccc(Cl)cc2)C(C)(C)C)c1 | 71 nM
37 | CN(C(=O)[C@H](Cc1ccccc1)NC(=O)OCc1ccccc1)N(C#N)Cc1ccc(Br)cc1F | 104 nM
38 | CN(C(=O)[C@H](Cc1ccccc1)NC(=O)OCc1ccccc1)N(C#N)Cc1c(F)cc(Br)cc1F | 81 nM
39 | CN(C(=O)[C@H](Cc1ccccc1)NC(=O)CCc1ccc(F)c(F)c1)N(C#N)Cc1ccc(Cl)cc1 | 1420 nM
40 | COc1ccc(OC)c(CN(C#N)N(C)C(=O)[C@H](Cc2ccccc2)NC(=O)OCc2ccccc2)c1 | 826 nM
41 | CN(C(=O)[C@H](Cc1ccccc1)NC(=O)OCc1ccccc1)N(C#N)Cc1ccc(Br)c(Cl)c1F | 125 nM
42 | CN(C(=O)[C@H](Cc1ccccc1)NC(=O)OCc1ccccc1)N(C#N)Cc1cccc(Br)c1 | 86 nM

Row | SMILES | IC50
43 | CN1C(=O)[C@H](Cc2ccccc2)N(C(=O)COc2ccc(Cl)cc2Cl)CCCCCOc2ccc(F)cc2CN1C#N | 48 nM
44 | CN(C(=O)[C@H](Cc1ccccc1)NC(=O)C1(NC(=O)c2cccs2)CC1)N(C#N)Cc1ccc(Cl)cc1 | 566 nM
45 | CN1C(=O)[C@H](Cc2ccccc2)N(C(=O)CNC(=O)c2cccs2)CC2(CC2)COc2c(Cl)cccc2CN1C#N | 30 nM
46 | COc1ccc(CN(C#N)N(C)C(=O)[C@H](Cc2ccccc2)NC(=O)OCc2ccccc2)cc1 | 345 nM
47 | CN(C(=O)[C@H](Cc1cccc(Cl)c1)NC(=O)[C@@H](NC(=O)c1cccs1)C(C)(C)C)N(C#N)Cc1cccc(Cl)c1F | 9 nM
48 | CN(C(=O)[C@H](Cc1ccccc1)NC(=O)[C@@H](NC(=O)c1ccc(-c2cccs2)s1)C(C)(C)C)N(C#N)Cc1ccc(Cl)cc1 | 534 nM
49 | COc1c(Cl)cccc1CN(C#N)N(C)C(=O)[C@H](Cc1ccccc1)NC(=O)OCc1ccccc1 | 425 nM
50 | CN(C(=O)[C@H](Cc1ccccc1)NC(=O)COc1cccc(F)c1Br)N(C#N)Cc1ccc(Cl)cc1 | 1020 nM
51 | CN(C(=O)[C@H](Cc1ccccc1)NC(=O)OCc1ccccc1)N(C#N)Cc1ccccc1Br | 188 nM
52 | CN(C(=O)[C@H](Cc1ccccc1)NC(=O)[C@@H](NC(=O)C1(F)CC1)C(C)(C)C)N(C#N)Cc1ccc(Cl)cc1 | 50 nM
53 | CN(C(=O)[C@H](Cc1ccccc1)NC(=O)OCc1ccccc1)N(C#N)Cc1ccc(Br)c(Cl)c1 | 192 nM
54 | COc1ccc(NCC(=O)N[C@@H](Cc2ccccc2)C(=O)N(C)N(C#N)Cc2ccc(Cl)cc2)c(Cl)c1 | 673 nM
55 | CN(C(=O)[C@H](Cc1ccccc1)NC(=O)COc1cccc(Cl)c1)N(C#N)Cc1ccc(Cl)cc1 | 1060 nM
56 | CN(C(=O)[C@H](Cc1ccccc1)NC(=O)COc1cccc2ccccc12)N(C#N)Cc1ccc(Cl)cc1 | 1060 nM
57 | CN(C(=O)[C@H](Cc1ccccc1)NC(=O)OCc1ccccc1)N(C#N)Cc1ccc([N+](=O)[O-])cc1 | 210 nM
58 | CN(C(=O)[C@H](Cc1ccccc1)NC(=O)[C@@H](NC(=O)c1cccs1)C(C)(C)C)N(C#N)Cc1cccc(Cl)c1F | 15 nM
59 | CN(C(=O)[C@H](Cc1cccc(F)c1)NC(=O)[C@@H](NC(=O)c1cccs1)C(C)(C)C)N(C#N)Cc1cccc(Cl)c1F | 4 nM
60 | COc1cccc2[nH]c(C(=O)N[C@@H](Cc3ccccc3)C(=O)N(C)N(C#N)Cc3ccc(Cl)cc3)cc12 | 23 nM
61 | COc1ccc(Cl)c(F)c1CN(C#N)N(C)C(=O)[C@H](Cc1ccccc1)NC(=O)OCc1ccccc1 | 392 nM
62 | CN(C(=O)[C@H](Cc1ccccc1)NC(=O)COc1ccc(Cl)cc1Cl)N(C#N)Cc1ccc(Cl)cc1 | 1820 nM

Target: T1, Replicase polyprotein 1ab
Settings: not given
Remark: another data set of the same source

Row | SMILES | Ki
63 | CN(C(=O)[C@H](Cc1cccs1)NC(=O)[C@@H](NC(=O)c1cccs1)C(C)(C)C)N(C#N)Cc1cccc(Cl)c1F | 6.45 nM
64 | CN(C(=O)[C@H](Cc1ccccc1)NC(=O)[C@@H](NC(=O)c1cccs1)C1CCCCC1)N(C#N)Cc1ccc(Cl)cc1 | 13 nM
65 | CN1C(=O)[C@H](Cc2ccccc2)N(C(=O)CNC(=O)c2cccs2)CC2(CC2)COc2c(Cl)cccc2CN1C#N | 21.1 nM

Target: Replicase polyprotein 1ab (Severe acute respiratory syndrome coronavirus 2) (UniProt P0DTD1)
Settings: dose 1.0 µM, time 65.0 min

Row | SMILES | inhibition
66 | CN(C(=O)[C@H](Cc1ccc(Cl)cc1)NC(=O)[C@@H](NC(=O)c1cccs1)C(C)(C)C)N(C#N)Cc1cccc(Cl)c1F | 6%
67 | CN(C(=O)[C@H](Cc1ccccc1)NC(=O)[C@@H]1CCCN1C(=O)c1cccs1)N(C#N)Cc1ccc(Cl)cc1 | 13%
68 | CN(C(=O)[C@H](Cc1ccccc1)NC(=O)OCc1ccccc1)N(C#N)CC1CCNC1=O (stereo partly specified) | 21%
69 | CN(C(=O)[C@@H]1Cc2ccccc2CN1C(=O)OCc1ccccc1)N(C#N)Cc1ccc(Cl)cc1 | 26%
70 | CN(C(=O)[C@@H]1Cc2ccccc2CN1C(=O)COc1ccc(Cl)cc1Cl)N(C#N)Cc1ccc(Cl)cc1 | 11%
71 | COc1cccc(NC2(C(=O)N[C@@H](Cc3ccccc3)C(=O)N(C)N(C#N)Cc3ccc(Cl)cc3)CCCC2)c1 | 12%
72 | CN(C(=O)[C@H](Cc1ccccc1)NC(=O)[C@@H]1Cc2ccccc2CN1C(=O)c1cccs1)N(C#N)Cc1ccc(Cl)cc1 | 21%
73 | CN(C(=O)[C@H](Cc1ccccc1)NC(=O)C(C)(C)Oc1ccc(Cl)cc1Cl)N(C#N)Cc1ccc(Cl)cc1 | 17%
74 | CN(C(=O)[C@@H](NC(=O)[C@@H](NC(=O)c1cccs1)C(C)(C)C)C1CCCCC1)N(C#N)Cc1cccc(Cl)c1F | 21%
75 | CN(C(=O)[C@@H]1CCCN1C(=O)[C@@H](NC(=O)c1cccs1)C(C)(C)C)N(C#N)Cc1cccc(Cl)c1F | 5%
76 | CN(C(=O)[C@@H](NC(=O)[C@@H](NC(=O)c1cccs1)C(C)(C)C)C(c1ccccc1)c1ccccc1)N(C#N)Cc1cccc(Cl)c1F | 10%
77 | CC(C)c1ccc(OCC(=O)N[C@@H](Cc2ccccc2)C(=O)N(C)N(C#N)Cc2ccc(Cl)cc2)cc1 | 21%
78 | CN(C(=O)[C@H](Cc1ccccc1)NC(=O)C1(Oc2ccc(Cl)cc2Cl)CCCCC1)N(C#N)Cc1ccc(Cl)cc1 | 7%
79 | CN(C(=O)[C@H](Cc1ccccc1)NC(=O)C1(Oc2ccc(Cl)cc2Cl)CCC1)N(C#N)Cc1ccc(Cl)cc1 | 8%

Target: Procathepsin L (Homo sapiens, UniProt P07711)
Experiment: Inhibition of human cathepsin L using Z-Phe-Arg-pNA as substrate incubated for 60 mins
Settings: not given

Sequence of Procathepsin L (P07711 whole entry): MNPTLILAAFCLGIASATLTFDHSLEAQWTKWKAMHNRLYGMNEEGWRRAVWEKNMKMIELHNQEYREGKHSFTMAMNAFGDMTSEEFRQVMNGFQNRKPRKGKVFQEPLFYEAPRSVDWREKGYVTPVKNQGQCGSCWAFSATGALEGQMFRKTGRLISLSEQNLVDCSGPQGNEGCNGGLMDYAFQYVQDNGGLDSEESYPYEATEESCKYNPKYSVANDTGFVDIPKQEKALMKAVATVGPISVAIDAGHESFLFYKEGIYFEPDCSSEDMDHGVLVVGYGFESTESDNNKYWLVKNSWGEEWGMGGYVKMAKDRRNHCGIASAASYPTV

Row | SMILES | Ki
80 | CN(C(=O)[C@H](Cc1ccccc1F)NC(=O)[C@@H](NC(=O)c1cccs1)C(C)(C)C)N(C#N)Cc1cccc(Cl)c1F | 49.6 nM
81 | CN(C(=O)[C@H](Cc1cccs1)NC(=O)[C@@H](NC(=O)c1cccs1)C(C)(C)C)N(C#N)Cc1cccc(Cl)c1F | 130 nM
82 | CN(C(=O)[C@H](Cc1ccccc1)NC(=O)[C@@H](NC(=O)c1cccs1)C1CCCCC1)N(C#N)Cc1ccc(Cl)cc1 | 25.1 nM
83 | CN(C(=O)[C@H](Cc1ccccc1Cl)NC(=O)[C@@H](NC(=O)c1cccs1)C(C)(C)C)N(C#N)Cc1cccc(Cl)c1F | 56.1 nM
84 | CN(C(=O)[C@H](Cc1cccc(Cl)c1)NC(=O)[C@@H](NC(=O)c1cccs1)C(C)(C)C)N(C#N)Cc1cccc(Cl)c1F | 163 nM
85 | CN(C(=O)[C@H](Cc1ccccc1)NC(=O)[C@@H](NC(=O)c1cccs1)C(C)(C)C)N(C#N)Cc1cccc(Cl)c1F | 93.5 nM
86 | CN(C(=O)[C@H](Cc1cccc(F)c1)NC(=O)[C@@H](NC(=O)c1cccs1)C(C)(C)C)N(C#N)Cc1cccc(Cl)c1F | 178 nM
